What was measured:
[1] = cited from earlier work
[2] = Cortisol transport through hydrophobic barrier (track-etch membrane with castor oil) to electrochemical aptamer sensor, FIG. 6B; details: sensor solution hundreds of micrometers thick; track-etch membrane of 10% porosity filled with castor oil

concentration lag time (time for sensor solution to reach 90% of sample solution concentration) [2] [min]	SMILES	Solubility in Water (in words) [1]
–	CCCCC/C=C\C/C=C\C/C=C\C/C=C\CCCC(=O)O [Arachidonic Acid]	Negligible
–	CCCCCC/C=C\CCCCCCCC(=O)O [Palmitoleic Acid]	Low
~30	C[C@]12CCC(=O)C=C1CC[C@@H]1[C@@H]2[C@@H](O)C[C@@]2(C)[C@H]1CC[C@]2(O)C(=O)CO [cortisol]	–

Reference: US12259352B2, “Membrane enhanced sensors” (University Of Cincinnati, priority 2018, dated 2025)
